Test results reported in PubChem BioAssay (NCI).
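Values below derive from 48-hour exposures of cells grown in 96-well plates, with endpoints linearly interpolated between the two concentrations bracketing the appropriate inhibition level. GI50 is the concentration that inhibits growth by half. At the TGI there is no net growth.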

Experiments:
Test in all cases: inhibition of tumour cell growth, NCI panel, 48 h
HOP-62 NSCLC = tested on: HOP-62 NSCLC
SF-268 CNS = tested on: SF-268 CNS
SNB-75 CNS = tested on: SNB-75 CNS
IGROV1 ovarian = tested on: IGROV1 ovarian
A498 renal = tested on: A498 renal
RPMI-8226 leukemia = tested on: RPMI-8226 leukemia
NCI-H226 lung = tested on: NCI-H226 lung
KM12 colon = tested on: KM12 colon
EKVX NSCLC = tested on: EKVX NSCLC
PC-3 prostate = tested on: PC-3 prostate

Row | SMILES | GI50 (HOP-62 NSCLC) [µM] | TGI (HOP-62 NSCLC) [µM] | GI50 (SF-268 CNS) [µM] | TGI (SF-268 CNS) [µM] | GI50 (SNB-75 CNS) [µM] | TGI (SNB-75 CNS) [µM] | GI50 (IGROV1 ovarian) [µM] | TGI (IGROV1 ovarian) [µM] | GI50 (A498 renal) [µM] | TGI (A498 renal) [µM] | GI50 (RPMI-8226 leukemia) [µM] | TGI (RPMI-8226 leukemia) [µM] | GI50 (NCI-H226 lung) [µM] | TGI (NCI-H226 lung) [µM] | GI50 (KM12 colon) [µM] | TGI (KM12 colon) [µM] | GI50 (EKVX NSCLC) [µM] | TGI (EKVX NSCLC) [µM] | GI50 (PC-3 prostate) [µM] | TGI (PC-3 prostate) [µM]
1 | Cc1[cH-]c(=O)n(-c2ccccc2)n1.[Au+].[Au].c1ccc([PH+](c2ccccc2)c2ccccc2)cc1.c1ccc([PH+](c2ccccc2)c2ccccc2)cc1 | 23.7 | 54 | 7.14 | 31.9 | 14.7 | 39.3 | 13.6 | 31.7 | 23.9 | 38.9 | 99.4 | > 100 | 26.7 | 77.8 | 36.7 | > 100 | 23 | 79.7 | – | –
2 | COc1ccc(Cn2c(Br)c3c(c2Br)-c2nc(N)sc2CC3)cc1 | 6.55 | 20.5 | 6.15 | 46.6 | 1.92 | 8.64 | 11.6 | 39.2 | 4.66 | 17.3 | – | – | – | – | 3.47 | 20.6 | – | – | 4.76 | 30.1
3 | Cc1cc(Nc2ccc(C)c(Cl)c2)n2nc(C(F)(F)F)nc2n1 | 30.8 | 98.9 | 28.3 | > 100 | 27.7 | > 100 | 26.7 | > 100 | 8.61 | 53.5 | 14 | 39 | 23.2 | > 100 | 27.2 | > 100 | – | – | 22 | > 100
4 | CN1C(=O)C(=O)N2c3ccc(Cl)cc3C3(c4ccccc4)N=CC12O3 (configuration not stated) | – | 30.7 | – | 25.6 | – | 24.3 | – | 40 | – | 22.9 | – | 6.87 | – | 26.8 | – | 13.7 | – | 27.6 | – | –
5 | COc1cc2c(cc1OC)-c1cc(OC)c(OC)cc1C(CN(C)C)C2 (configuration not stated) | > 10 | > 10 | > 10 | > 10 | 4.56 | > 10 | > 10 | > 10 | > 10 | > 10 | > 10 | > 10 | > 10 | > 10 | > 10 | > 10 | – | – | > 10 | > 10
6 | O=c1[nH]c(-c2ccccc2)nc2cc(Cl)ccc12 | – | > 100 | – | – | – | > 100 | – | > 100 | – | > 100 | – | > 100 | – | > 100 | – | > 100 | – | > 100 | – | –
7 | N#CC(C(=O)CCC(=O)Nc1ccc(Cl)c(Cl)c1)c1ccccc1 (configuration not stated) | – | > 100 | – | > 100 | – | > 100 | – | > 100 | – | > 100 | – | > 100 | – | > 100 | – | > 100 | – | > 100 | – | –
8 | CC(=O)OCc1ccc2c(c1)C(O)NC(=O)O2 (configuration not stated) | – | > 100 | – | > 100 | – | > 100 | – | > 100 | – | – | – | 73.6 | – | > 100 | – | > 100 | – | > 100 | – | > 100
9 | CCCOc1nc(N)c2cnn(C3CCCCO3)c2n1 (configuration not stated) | – | > 100 | – | > 100 | – | > 100 | – | > 100 | – | – | – | > 100 | – | > 100 | – | > 100 | – | > 100 | – | –
10 | O=C(NC1C=CCC2C(=O)N(c3ccccc3)C(=O)C12)OCc1ccccc1 (configuration not stated) | – | > 100 | – | > 100 | – | > 100 | – | > 100 | – | – | – | > 100 | – | > 100 | – | > 100 | – | > 100 | – | –
11 | NC(=S)N/N=C\c1nccc2c(C(F)(F)F)cccc12 | 0.207 | 1.4 | 0.27 | 21.6 | 0.284 | 16.7 | 0.365 | 14.8 | 0.433 | 10.6 | 0.376 | 14.9 | 0.259 | 2.39 | 0.356 | 16.9 | – | – | 0.351 | 15.2
12 | O=C1C(C(Nc2ccccc2)c2ccccc2)=C([O-])c2ccccc21.O=C1C(C(Nc2ccccc2)c2ccccc2)=C([O-])c2ccccc21.[Cu+2] (configuration not stated) | > 100 | > 100 | – | – | 17.2 | 92.1 | 54.5 | > 100 | 30.6 | > 100 | 24.8 | > 100 | – | – | 32.2 | > 100 | – | – | – | –
13 | CN(C)CC1CCC/C1=N/OC(=O)c1ccccc1 (configuration not stated) | – | > 100 | – | > 100 | – | > 100 | – | > 100 | – | > 100 | – | > 100 | – | > 100 | – | – | – | – | – | –
14 | CC1(C)CC(c2c[nH]c3ccccc23)=CC2=Nc3ccccc3C21O (configuration not stated) | – | > 100 | – | > 100 | – | 25.4 | – | > 100 | – | > 100 | – | > 100 | – | 57.7 | – | > 100 | – | > 100 | – | –
15 | O=S1C(=c2ccc(=C3Sc4ccccc4S3)cc2)Sc2ccccc21 (configuration not stated) | – | 31.6 | – | 37.3 | – | 35.8 | – | > 95.5 | – | 30.2 | – | > 100 | – | 34 | – | 31.4 | – | 34.2 | – | –
16 | [O-][Cl+3]([O-])([O-])[O-].[O]=[Ru]=[O].c1ccc(-c2ccccn2)nc1.c1ccc(-c2ccccn2)nc1 | > 100 | > 100 | 65.7 | > 100 | 40.9 | > 100 | 58.8 | > 100 | > 100 | > 100 | 29.7 | > 100 | 56.7 | > 100 | > 100 | > 100 | > 100 | > 100 | – | –
17 | O=c1c2cccnc2ncn1CCN1CCCCC1 | – | > 100 | – | > 100 | – | > 100 | – | > 100 | – | – | – | – | – | > 100 | – | > 100 | – | > 100 | – | –
18 | Cc1ccc(NC2=C3CCCCC3OC2=O)cc1 (configuration not stated) | > 100 | > 100 | > 100 | > 100 | 71.9 | > 100 | 54.3 | > 100 | 65.9 | > 100 | 34.5 | > 100 | 87.1 | > 100 | > 100 | > 100 | – | – | 49.7 | > 100
